Patent US9018383B2, “Acylamino-substituted cyclic carboxylic acid derivatives and their use as pharmaceuticals” (Sanofi, priority 2009, dated 2015)
pIC50: −log10 of the molar value.

target: human Edg-2 receptor (Homo sapiens, UniProt Q92633); assay: Determination of Edg-2 receptor inhibition by FLIPR measurements (LPA-mediated calcium liberation); format: cell-based; conditions: CHO cells overexpressing human Edg-2 receptor, LPA 100 nM, fluo-4 calcium fluorescence; read-out: Inhibitory concentrations IC50 for inhibition of the Edg-2 receptor
How it was run: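 CHO cells stably overexpressing human Edg-2, loaded with fluo-4 AM, were pre-incubated ~5 min with compound (≤0.3% DMSO), then stimulated with 100 nM LPA 18:1 in HBSS/HEPES/probenecid, pH 7.5. Peak calcium fluorescence over ~3 min, baseline-corrected, versus DMSO gave % inhibition; IC50 from triplicates.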

Sequence of human Edg-2 receptor (Q92633 whole entry): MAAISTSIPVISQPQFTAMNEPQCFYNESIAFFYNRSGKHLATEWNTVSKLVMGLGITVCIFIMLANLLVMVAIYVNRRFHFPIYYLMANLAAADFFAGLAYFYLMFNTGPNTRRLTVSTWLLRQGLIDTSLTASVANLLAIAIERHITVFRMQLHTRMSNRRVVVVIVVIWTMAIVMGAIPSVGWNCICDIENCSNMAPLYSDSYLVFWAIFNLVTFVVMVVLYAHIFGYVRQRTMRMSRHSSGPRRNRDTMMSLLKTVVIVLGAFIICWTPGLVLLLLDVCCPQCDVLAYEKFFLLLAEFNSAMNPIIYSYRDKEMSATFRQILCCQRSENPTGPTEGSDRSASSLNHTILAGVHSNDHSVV

| pIC50 | SMILES |
| --- | --- |
| > 7.00 | CC[C@H]1CC[C@@](NC(=O)c2cnc(OC)c(OCCc3cccc(OC(F)(F)F)c3)c2)(C(=O)O)CC1 [Example 398, trans-4-Ethyl-1-({6-methoxy-5-[2-(3-trifluoromethoxy-phenyl)-ethoxy]-pyridine-3-carbonyl}-amino)-cyclohexanecarboxylic acid] |
| > 7.00 | CC[C@H]1CC[C@](NC(=O)c2cnc(OC)c(OCCc3cccc(OC(F)(F)F)c3)c2)(C(=O)O)CC1 [Example 399, cis-4-Ethyl-1-({6-methoxy-5-[2-(3-trifluoromethoxy-phenyl)-ethoxy]-pyridine-3-carbonyl}-amino)-cyclohexanecarboxylic acid] |
| > 7.00 | COc1ncc(C(=O)N[C@]2(C(=O)O)CC[C@H](C)CC2)cc1OCCc1ccccc1 [Example 400, cis-1-{[6-Methoxy-5-(2-phenyl-ethoxy)-pyridine-3-carbonyl]-amino}-4-methyl-cyclohexanecarboxylic acid] |
| > 7.00 | COc1ncc(C(=O)NC2(C(=O)O)CCCCCC2)cc1OCCc1cccc(Cl)c1 [Example 401, 1-({5-[2-(3-Chloro-phenyl)-ethoxy]-6-methoxy-pyridine-3-carbonyl}-amino)-cycloheptanecarboxylic acid] |
| > 7.00 | COc1ncc(C(=O)N[C@]2(C(=O)O)CC[C@H](C(F)(F)F)CC2)cc1OCCc1cccc(C)c1 [Example 402, cis-1-{[6-Methoxy-5-(2-m-tolyl-ethoxy)-pyridine-3-carbonyl]-amino}-4-trifluoromethyl-cyclohexanecarboxylic acid] |

Second part, the molecule before the results:

| SMILES | pIC50 |
| --- | --- |
| CC[C@H]1CC[C@](NC(=O)c2cc(F)c(OCCO)c(-c3cc(F)cc(F)c3)c2)(C(=O)O)CC1 [Example 385] | > 7.00 |
| CC[C@H]1CC[C@@](NC(=O)c2ccc(OCCO)c(-c3cccc(C(F)(F)F)c3)c2)(C(=O)O)CC1 [Example 386, trans-4-Ethyl-1-{[6-(2-hydroxy-ethoxy)-3′-trifluoromethyl-biphenyl-3-carbonyl]-amino}-cyclohexanecarboxylic acid] | > 7.00 |
| COc1c(F)cc(C(=O)N[C@]2(C(=O)O)CC[C@@H](C)CC2)cc1OCCc1cccc(CCO)c1 [Example 392, trans-1-(3-Fluoro-5-{2-[3-(2-hydroxy-ethyl)-phenyl]-ethoxy}-4-methoxy-benzoylamino)-4-methyl-cyclohexanecarboxylic acid] | > 7.00 |
| COc1c(F)cc(C(=O)NC2(C(=O)O)CCCCCC2)cc1OCCc1cccc(CCO)c1 [Example 393, 1-(3-Fluoro-5-{2-[3-(2-hydroxy-ethyl)-phenyl]-ethoxy}-4-methoxy-benzoylamino)-cycloheptanecarboxylic acid] | > 7.00 |
| CC[C@H]1CC[C@@](NC(=O)c2cc(F)c(OC)c(OCCc3cccc(CCO)c3)c2)(C(=O)O)CC1 [Example 394, trans-4-Ethyl-1-(3-fluoro-5-{2-[3-(2-hydroxy-ethyl)-phenyl]-ethoxy}-4-methoxy-benzoylamino)-cyclohexanecarboxylic acid] | > 7.00 |
| CC[C@H]1CC[C@@](NC(=O)c2cnc(OC)c(OCCc3cccc(C)c3)c2)(C(=O)O)CC1 [Example 395, trans-4-Ethyl-1-{[6-methoxy-5-(2-m-tolyl-ethoxy)-pyridine-3-carbonyl]-amino}-cyclohexanecarboxylic acid] | > 7.00 |
| CC[C@H]1CC[C@](NC(=O)c2cnc(OC)c(OCCc3cccc(C)c3)c2)(C(=O)O)CC1 [Example 396, cis-4-Ethyl-1-{[6-methoxy-5-(2-m-tolyl-ethoxy)-pyridine-3-carbonyl]-amino}-cyclohexanecarboxylic acid] | > 7.00 |
| CC[C@H]1CC[C@@](NC(=O)c2cnc(OC)c(OCCc3cccc(Cl)c3)c2)(C(=O)O)CC1 [Example 397, trans-1-({5-[2-(3-Chloro-phenyl)-ethoxy]-6-methoxy-pyridine-3-carbonyl}-amino)-4-ethyl-cyclohexanecarboxylic acid] | > 7.00 |
